Assay results reported in US5086042A, “Peptides with sulfate ester groups” (Fisons Corporation, priority 1989, dated 1992).
Several values for one entry are separate records, joined by “and”; a condition that tells them apart may be missing. Equal entries are not always repeated. Non-standard residues stand in square brackets, D forms with d. Residues, ends and D or L forms follow the SMILES beside them. sY = N[C@@H](Cc1ccc(OS(=O)(=O)O)cc1)C(=O)O

System: Male Sprague-Dawley rats
Type: in vivo
Settings: rat, intraperitoneal; for % FEEDING INHIBITION 0.5 hr / % FEEDING INHIBITION 3 hr: 30 μg/kg, vs saline controls; for % FEEDING INHIBITION 3 hr: IA means inactive; for feeding inhibition during the 0.5 hour feeding period: 0.3 μg/kg; for feeding inhibition during the 3 hour feeding period: 3 μg/kg
Method: The peptides of this invention have the ability to inhibit feeding activity in mammals. As a result they have utility in the prevention and treatment of obesity.
Male Sprague-Dawley rats (weighing 300-350 g) are individually caged and maintained on a 12 hr. light, dark cycle and trained for at least 14 days to feed during a three hr period of the dark cycle but not the 21 hours preceding that three hr period. The day of the study, rats are dosed intraperitoneally with saline (controls) or test compound (dissolved in saline; usually at a concentration of 0.3 to 300 micrograms of test compound per kg of rat weight). Food is introduced 10 minutes after administration of saline or test compound. […] The % feeding inhibition for the 1/2 hr and 3 hr feeding periods obtained by administering a dose of 30 μg/kg of test compound is given in Table 2 for CCK-8 and various compounds of the invention. For example, the % feeding inhibition obtained with CCK-8 (first line of Table 2) was 70% for the 1/2 hr feeding period and 25% for the 3-hour period.

| Compound | % FEEDING INHIBITION 0.5 hr (0.5 hr feeding period) [%] | % FEEDING INHIBITION 3 hr (3 hr feeding period) [%] | % FEEDING INHIBITION 3 hr (values marked *) (300 μg/kg, 3 hr feeding period, <10% inhibition at 30 μg/kg) [%] | % FEEDING INHIBITION 0.5 hr (values marked *) (300 μg/kg, 0.5 hr feeding period, <10% inhibition at 30 μg/kg) [%] | feeding inhibition during the 0.5 hour feeding period (0.5 hr feeding period) | feeding inhibition during the 3 hour feeding period (3 hr feeding period) |
| --- | --- | --- | --- | --- | --- | --- |
| CSCC[C@H](NC(=O)[C@H](Cc1ccc(OS(=O)(=O)O)cc1)NC(=O)[C@H](N)CC(=O)O)C(=O)NCC(=O)N[C@@H](Cc1c[nH]c2ccccc12)C(=O)N[C@@H](CCSC)C(=O)N[C@@H](CC(=O)O)C(=O)N[C@@H](Cc1ccccc1)C(N)=O [H-DAsp-Tyr(SO3 H)-Met-Gly-Trp-Met-Asp-Phe-NH2] | 99 | 40 | – | – | – | – |
| CSCC[C@H](NC(=O)[C@H](Cc1c[nH]c2ccccc12)NC(=O)CNC(=O)[C@H](CCSC)NC(=O)[C@@H](N)Cc1ccc(OS(=O)(=O)O)cc1)C(=O)N[C@@H](CC(=O)O)C(=O)N[C@@H](Cc1ccccc1)C(N)=O [H-Try(SO3 H)-Met-Gly-Trp-Met-Asp-Phe-NH2, H-Tyr(SO3 H)-Met-Gly-Trp-Met-Asp-Phe-NH2] (HELM PEPTIDE1{[N[C@@H](Cc1ccc(OS(=O)(=O)O)cc1)C(=O)[*:2]].M.G.W.M.D.F.[am]}$$$$V2.0) | 50 | – | 30 | – | – | – |
| CSCC[C@H](NC(=O)[C@H](Cc1ccc(OS(=O)(=O)O)cc1)NC(=O)C[C@H](N)C(=O)O)C(=O)NCC(=O)N[C@@H](Cc1c[nH]c2ccccc12)C(=O)N[C@@H](CCSC)C(=O)N[C@@H](CC(=O)O)C(=O)N[C@@H](Cc1ccccc1)C(N)=O [H-βAsp-Tyr(SO3 H)-Met-Gly-Trp-Met-Asp-Phe-NH2] | 91 | 21 | – | – | – | – |
| CC[C@H](C)[C@H](NC(=O)[C@H](Cc1ccc(OS(=O)(=O)O)cc1)NC(=O)CCC(=O)O)C(=O)NCC(=O)N[C@@H](Cc1c[nH]c2ccccc12)C(=O)N[C@H](C(=O)N[C@@H](CC(=O)O)C(=O)N[C@@H](Cc1ccccc1)C(N)=O)[C@@H](C)CC [Suc-Tyr(SO3 H)-Ile-Gly-Trp-Ile-Asp-Phe-NH2] (HELM PEPTIDE1{[O=C(O)CCC(=O)[*:2]].[O=C([C@H](Cc1ccc(OS(=O)(=O)O)cc1)N[*:1])[*:2]].I.G.W.I.D.F.[am]}$$$$V2.0) | 73 | 54 | – | – | – | – |
| CSCC[C@H](NC(=O)[C@H](Cc1c[nH]c2ccccc12)NC(=O)[C@@H](C)NC(=O)[C@H](CCSC)NC(=O)[C@H](Cc1ccc(OS(=O)(=O)O)cc1)NC(=O)CCC(=O)O)C(=O)N[C@@H](CC(=O)O)C(=O)N[C@@H](Cc1ccccc1)C(N)=O [Suc-Tyr(SO3 H)-Met-DAla-Trp-Met-Asp-Phe-NH2] (HELM PEPTIDE1{[O=C(O)CCC(=O)[*:2]].[O=C([C@H](Cc1ccc(OS(=O)(=O)O)cc1)N[*:1])[*:2]].M.[dA].W.M.D.F.[am]}$$$$V2.0) | 75 | 30 | – | – | – | – |
| CSCC[C@H](NC(=O)[C@H](Cc1ccc(OS(=O)(=O)O)cc1)NC(=O)CCC(=O)O)C(=O)NCC(=O)N[C@@H](Cc1c[nH]c2ccccc12)C(=O)N[C@@H](CCSC)C(=O)N[C@@H](CC(=O)O)C(=O)N[C@@H](Cc1ccccc1)C(N)=O [Suc-Tyr(SO3 H)-Met-Gly-Trp-Met-Asp-Phe-NH2] (HELM PEPTIDE1{[O=C(O)CCC(=O)[*:2]].[O=C([C@H](Cc1ccc(OS(=O)(=O)O)cc1)N[*:1])[*:2]].M.G.W.M.D.F.[am]}$$$$V2.0) | 75 | 55 | – | – | – | – |
| H-Asp-Tyr(SO3 H)-Ahx-Gly-Trp-Ahx-Asp-Phe-NH2 | 82 | 27 | – | – | – | – |
| H-Asp-Tyr(SO3 H)-Met-Gly-Trp-Ahx-Asp-Phe-NH2 | 82 | 23 | – | – | – | – |
| H-Asp-Tyr(SO3 H)-Met-Gly-Trp-Met-Asp-Tyr-NH2 (H-D[sY]MGWMDY-NH2; not fully specified) | – | – | – | 23 | – | – |
| Hpp(SO3 H)-Ahx-Gly-Trp-Ahx-Asp-Phe-NH2 | 100 | 99 | – | – | 20-72% | 50-90% |
| Hpp(SO3 sH)-Ahx-Gly-Trp-Ahx-Asp-MePhe-NH2 [Hpp(SO3 H)-Ahx-Gly-Trp-Ahx-Asp-MePhe-NH2] | 94 | 96 | – | – | 20-72% | 50-90% |
| Hpp(SO3 sH)-Ile-Gly-Trp-Ahx-Asp-MePhe-NH2 [Hpp(SO3 H)-Ile-Gly-Trp-Ahx-Asp-MePhe-NH2] | 98 | 100 | – | – | 20-72% | 50-90% |
| Suc-Tyr(SO3 H)-Ahx-Gly-Trp-Ahx-Asp-Phe-NH2 | 100 | 97 | – | – | 20-72% | 50-90% |
| Suc-Tyr(SO3 H)-Ile-Gly-Trp-Ahx-Asp-MePhe-NH2 | 100 | 100 | – | – | 20-72% | 50-90% and 90% |
| Suc-Tyr(SO3 ° H)-Ahx-Gly-Trp-Ahx-Asp-MePhe-NH2 | 100 | 98 | – | – | 20-72% | 50-90% |
| iBuOCO-Tyr(SO3 H)-Ahx-Gly-Trp-Ahx-Asp-MePhe-NH2 | 100 | 100 | – | – | 20-72% | 50-90% |
| iBuOCO-Tyr(SO3 H)-Ahx-Gly-Trp-Ahx-Asp-Phe-NH2 | 100 | 100 | – | – | 20-72% | 50-90% |
